Measured values published in PubChem BioAssay (NCI).
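Results reflect a 48-hour exposure of cells in 96-well plates to compound at five concentrations. GI50 = concentration required for 50% inhibition of growth. TGI is the concentration that stops growth completely.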

Key:
Experiment in all cases: NCI-60 cell line screen, 48 h
786-0 renal = system: 786-0 renal
A498 renal = system: A498 renal
A549 NSCLC = system: A549 NSCLC
ACHN renal = system: ACHN renal
CCRF-CEM leukemia = system: CCRF-CEM leukemia
COLO 205 colon = system: COLO 205 colon
DLD-1 colon = system: DLD-1 colon
DMS 114 small cell lung = system: DMS 114 small cell lung
DMS 273 small cell lung = system: DMS 273 small cell lung
HCC-2998 colon = system: HCC-2998 colon
HCT-116 colon = system: HCT-116 colon
HCT-15 colon = system: HCT-15 colon
HL-60(TB) leukemia = system: HL-60(TB) leukemia
HOP-18 NSCLC = system: HOP-18 NSCLC
HOP-62 NSCLC = system: HOP-62 NSCLC
HOP-92 NSCLC = system: HOP-92 NSCLC
HT29 colon = system: HT29 colon
IGROV1 ovarian = system: IGROV1 ovarian
K-562 leukemia = system: K-562 leukemia
KM12 colon = system: KM12 colon
LXFL 529 NSCLC = system: LXFL 529 NSCLC
M14 melanoma = system: M14 melanoma
M19-MEL melanoma = system: M19-MEL melanoma
MALME-3M melanoma = system: MALME-3M melanoma
MOLT-4 leukemia = system: MOLT-4 leukemia
NCI-H226 lung = system: NCI-H226 lung
NCI-H23 lung = system: NCI-H23 lung
NCI-H460 lung = system: NCI-H460 lung
NCI-H522 lung = system: NCI-H522 lung
OVCAR-3 ovarian = system: OVCAR-3 ovarian
OVCAR-4 ovarian = system: OVCAR-4 ovarian
OVCAR-5 ovarian = system: OVCAR-5 ovarian
OVCAR-8 ovarian = system: OVCAR-8 ovarian
RPMI-8226 leukemia = system: RPMI-8226 leukemia
SF-268 CNS = system: SF-268 CNS
SF-295 CNS = system: SF-295 CNS
SF-539 CNS = system: SF-539 CNS
SK-MEL-2 melanoma = system: SK-MEL-2 melanoma
SK-MEL-28 melanoma = system: SK-MEL-28 melanoma
SK-MEL-5 melanoma = system: SK-MEL-5 melanoma
SK-OV-3 ovarian = system: SK-OV-3 ovarian
SN12C renal = system: SN12C renal
SNB-75 CNS = system: SNB-75 CNS
SNB-78 CNS = system: SNB-78 CNS
SR leukemia = system: SR leukemia
SW-620 colon = system: SW-620 colon
TK-10 renal = system: TK-10 renal
U251 CNS = system: U251 CNS
UACC-257 melanoma = system: UACC-257 melanoma
UACC-62 melanoma = system: UACC-62 melanoma
UO-31 renal = system: UO-31 renal
CAKI-1 renal = system: CAKI-1 renal
EKVX NSCLC = system: EKVX NSCLC
LOX IMVI melanoma = system: LOX IMVI melanoma
RXF 393 renal = system: RXF 393 renal
SNB-19 CNS = system: SNB-19 CNS

Question: Which results are given for `Clc1ccc(C2=NOC(C3CCCCC3)C2)cc1` (stereo not given)?
Answer: TGI (786-0 renal): > 100 µM; TGI (A498 renal): > 100 µM; TGI (A549 NSCLC): > 100 µM; TGI (ACHN renal): > 100 µM; TGI (CCRF-CEM leukemia): > 100 µM; TGI (COLO 205 colon): > 100 µM; TGI (DLD-1 colon): > 100 µM; TGI (DMS 114 small cell lung): > 100 µM; TGI (DMS 273 small cell lung): > 100 µM; TGI (HCC-2998 colon): > 100 µM; TGI (HCT-116 colon): > 100 µM; TGI (HCT-15 colon): > 100 µM; TGI (HL-60(TB) leukemia): > 100 µM; TGI (HOP-18 NSCLC): > 100 µM; TGI (HOP-62 NSCLC): > 100 µM; TGI (HOP-92 NSCLC): > 100 µM; TGI (HT29 colon): > 100 µM; TGI (IGROV1 ovarian): > 100 µM; TGI (K-562 leukemia): > 100 µM; TGI (KM12 colon): > 100 µM; TGI (LXFL 529 NSCLC): > 100 µM; TGI (M14 melanoma): > 100 µM; TGI (M19-MEL melanoma): > 100 µM; TGI (MALME-3M melanoma): > 100 µM; TGI (MOLT-4 leukemia): > 100 µM; TGI (NCI-H226 lung): > 100 µM; TGI (NCI-H23 lung): > 100 µM; TGI (NCI-H460 lung): > 100 µM; TGI (NCI-H522 lung): > 100 µM; TGI (OVCAR-3 ovarian): > 100 µM; TGI (OVCAR-4 ovarian): > 100 µM; TGI (OVCAR-5 ovarian): > 100 µM; TGI (OVCAR-8 ovarian): > 100 µM; TGI (RPMI-8226 leukemia): > 100 µM; TGI (SF-268 CNS): > 100 µM; TGI (SF-295 CNS): > 100 µM; TGI (SF-539 CNS): > 100 µM; TGI (SK-MEL-2 melanoma): > 100 µM; TGI (SK-MEL-28 melanoma): > 100 µM; TGI (SK-MEL-5 melanoma): > 100 µM; TGI (SK-OV-3 ovarian): > 100 µM; TGI (SN12C renal): > 100 µM; TGI (SNB-75 CNS): > 100 µM; TGI (SNB-78 CNS): > 100 µM; TGI (SR leukemia): > 100 µM; TGI (SW-620 colon): > 100 µM; TGI (TK-10 renal): > 100 µM; TGI (U251 CNS): > 100 µM; TGI (UACC-257 melanoma): > 100 µM; TGI (UACC-62 melanoma): > 100 µM; TGI (UO-31 renal): > 100 µM

Question: Which results are given for `N.N.NCCCCCCN.O=C([O-])CCl.O=C([O-])CCl.O=C([O-])CCl.O=C([O-])CCl.[Pt+4].[Pt+4]`?
Answer: GI50 (786-0 renal): > 50 µM; TGI (786-0 renal): > 50 µM; GI50 (A498 renal): > 50 µM; TGI (A498 renal): > 50 µM; GI50 (A549 NSCLC): > 50 µM; TGI (A549 NSCLC): > 50 µM; GI50 (ACHN renal): 35.9 µM; TGI (ACHN renal): > 50 µM; GI50 (CAKI-1 renal): 24.7 µM; TGI (CAKI-1 renal): > 50 µM; GI50 (CCRF-CEM leukemia): 2730 nM; TGI (CCRF-CEM leukemia): > 50 µM; GI50 (COLO 205 colon): 9.54 µM; TGI (COLO 205 colon): > 50 µM; GI50 (DLD-1 colon): > 50 µM; TGI (DLD-1 colon): > 50 µM; GI50 (DMS 273 small cell lung): > 50 µM; TGI (DMS 273 small cell lung): > 50 µM; GI50 (EKVX NSCLC): > 50 µM; TGI (EKVX NSCLC): > 50 µM; GI50 (HCC-2998 colon): > 50 µM; TGI (HCC-2998 colon): > 50 µM; GI50 (HCT-116 colon): > 50 µM; TGI (HCT-116 colon): > 50 µM; GI50 (HCT-15 colon): > 50 µM; TGI (HCT-15 colon): > 50 µM; GI50 (HL-60(TB) leukemia): 15.5 µM; TGI (HL-60(TB) leukemia): > 50 µM; GI50 (HOP-18 NSCLC): > 50 µM; TGI (HOP-18 NSCLC): > 50 µM; GI50 (HOP-62 NSCLC): 6.04 µM; TGI (HOP-62 NSCLC): > 50 µM; GI50 (HT29 colon): 37.1 µM; TGI (HT29 colon): > 50 µM; GI50 (IGROV1 ovarian): > 50 µM; TGI (IGROV1 ovarian): > 50 µM; GI50 (K-562 leukemia): > 50 µM; TGI (K-562 leukemia): > 50 µM; GI50 (KM12 colon): > 50 µM; TGI (KM12 colon): > 50 µM; GI50 (LOX IMVI melanoma): > 50 µM; TGI (LOX IMVI melanoma): > 50 µM; GI50 (LXFL 529 NSCLC): > 50 µM; TGI (LXFL 529 NSCLC): > 50 µM; GI50 (M14 melanoma): > 50 µM; TGI (M14 melanoma): > 50 µM; GI50 (MALME-3M melanoma): > 50 µM; TGI (MALME-3M melanoma): > 50 µM; GI50 (MOLT-4 leukemia): 1730 nM; TGI (MOLT-4 leukemia): > 50 µM; GI50 (NCI-H226 lung): 17 µM; TGI (NCI-H226 lung): > 50 µM; GI50 (NCI-H23 lung): 27.1 µM; TGI (NCI-H23 lung): > 50 µM; GI50 (NCI-H460 lung): 3.11 µM; TGI (NCI-H460 lung): > 50 µM; GI50 (NCI-H522 lung): 10.9 µM; TGI (NCI-H522 lung): > 50 µM; GI50 (OVCAR-3 ovarian): > 50 µM; TGI (OVCAR-3 ovarian): > 50 µM; GI50 (OVCAR-4 ovarian): > 50 µM; TGI (OVCAR-4 ovarian): > 50 µM; GI50 (OVCAR-5 ovarian): > 50 µM; TGI (OVCAR-5 ovarian): > 50 µM; GI50 (OVCAR-8 ovarian): > 50 µM; TGI (OVCAR-8 ovarian): > 50 µM; GI50 (RPMI-8226 leukemia): > 50 µM; TGI (RPMI-8226 leukemia): > 50 µM; GI50 (RXF 393 renal): 13.1 µM; TGI (RXF 393 renal): > 50 µM; GI50 (SF-268 CNS): 18.8 µM; TGI (SF-268 CNS): > 50 µM; GI50 (SF-295 CNS): > 50 µM; TGI (SF-295 CNS): > 50 µM; GI50 (SF-539 CNS): 45.2 µM; TGI (SF-539 CNS): > 50 µM; GI50 (SK-MEL-2 melanoma): > 50 µM; TGI (SK-MEL-2 melanoma): > 50 µM; GI50 (SK-MEL-28 melanoma): > 50 µM; TGI (SK-MEL-28 melanoma): > 50 µM; GI50 (SK-MEL-5 melanoma): > 50 µM; TGI (SK-MEL-5 melanoma): > 50 µM; GI50 (SK-OV-3 ovarian): > 50 µM; TGI (SK-OV-3 ovarian): > 50 µM; GI50 (SN12C renal): 3.74 µM; TGI (SN12C renal): > 50 µM; GI50 (SNB-19 CNS): 27.8 µM; TGI (SNB-19 CNS): > 50 µM; GI50 (SNB-75 CNS): 8.34 µM; TGI (SNB-75 CNS): > 50 µM; GI50 (SNB-78 CNS): > 50 µM; TGI (SNB-78 CNS): > 50 µM; GI50 (SR leukemia): 8.23 µM; TGI (SR leukemia): > 50 µM; GI50 (SW-620 colon): > 50 µM; TGI (SW-620 colon): > 50 µM; GI50 (TK-10 renal): > 50 µM; TGI (TK-10 renal): > 50 µM; GI50 (U251 CNS): 25.2 µM; TGI (U251 CNS): > 50 µM; GI50 (UACC-257 melanoma): > 50 µM; TGI (UACC-257 melanoma): > 50 µM; GI50 (UO-31 renal): > 50 µM; TGI (UO-31 renal): > 50 µM
